{"source": "patent US8987195B2", "about": "(priority 2012, dated 2015)", "key": {"[1]": {"target": "HCV NS3/4A protease genotype 1b (Hepatitis C virus genotype 1b, UniProt P26663)", "assay": "HCV NS3/4A protease time-resolved fluorescence (TRF) assay, Ki against genotype 1b", "type": "biochemical", "details": "IC50 [gt-1b] (nM), NS3/4A genotype 1b, enzyme 0.2 nM", "how_it_was_run": "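Time-resolved fluorescence readout of NS3/4A cleavage of 25 nM europium-labelled peptide over 2.5 h at room temperature, enzyme levels set for signal/background 10–30 (0.2, 0.4, 0.025 nM for 1b, A156T, 3a). Ki by IC50=Ki(1+[S]/KM).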"}, "HCV genotype 1b replicon": {"system": "HCV genotype 1b replicon", "assay": "HCV replicon assay, genotype 1b replicon EC50", "type": "cell-based, Hepatitis C virus", "details": "Hepatitis C virus, genotype 1b replicon, read-out: EC50 [gt-1b]", "how_it_was_run": "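Stable neomycin-selected genotype 1b replicon cells, some carrying luciferase:Neo^r fusion, plated without G418 with a compound dilution series and incubated 24-48 h. Read-out was RNA (^32P-probe protection or TaqMan, normalized to cyclophilin A) or luciferase activity. EC50 from four-parameter fit as percent of DMSO control.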"}}, "note": "Read-outs that look alike come from different tables or passages of the source."}
{"molecule": "COc1ccc2nc(C)c3c(c2c1)CC[C@]1(C[C@H]2C(=O)N[C@]4(C(=O)NS(=O)(=O)C5(C)CC5)C[C@H]4/C=C\\CCCCC[C@H](NC(=O)OC4(C)CC4)C(=O)N2C1)O3", "note": "[Example 141, 1-methylcyclopropyl [(2R,6S,12Z,13aS,14aR,16aS)-9′-methoxy-5′-methyl-14a-{[(1-methylcyclopropyl)sulfonyl]carbamoyl}-5,16-dioxo-1,1′,2′,5,6,7,8,9,10,11,13a,14,14a,15,16,16a-hexadecahydrospiro[cyclopropa[e]pyrrolo[1,2-a][1,4]diazacyclopentadecine-2,3′-pyrano[2,3-c]quinolin]-6-yl]carbamate]", "values": [{"measurement": "IC50", "setting": "[1]", "value": 0.003, "unit": "nM"}, {"measurement": "EC50", "setting": "HCV genotype 1b replicon", "value": 1.47, "unit": "nM"}]}
{"molecule": "COc1ccc2nc(C)c3c(c2c1)CC[C@]1(C[C@H]2C(=O)N[C@]4(C(=O)NS(=O)(=O)C5(C)CC5)C[C@H]4/C=C\\CCCCC[C@H](NC(=O)OCC(C)C)C(=O)N2C1)O3", "note": "[Example 142, 2-methylpropyl [(2R,6S,12Z,13aS,14aR,16aS)-9′-methoxy-5′-methyl-14a-{[(1-methylcyclopropyl)sulfonyl]carbamoyl}-5,16-dioxo-1,1′,2′,5,6,7,8,9,10,11,13a,14,14a,15,16,16a-hexadecahydrospiro[cyclopropa[e]pyrrolo[1,2-a][1,4]diazacyclopentadecine-2,3′-pyrano[2,3-c]quinolin]-6-yl]carbamate]", "values": [{"measurement": "IC50", "setting": "[1]", "value": 0.004, "unit": "nM"}, {"measurement": "EC50", "setting": "HCV genotype 1b replicon", "value": 1.14, "unit": "nM"}]}
{"molecule": "Cc1nc2ccccc2c2c1O[C@]1(CC2)C[C@H]2C(=O)N[C@]3(C(=O)NS(=O)(=O)C4(C)CC4)C[C@H]3/C=C\\CCCCC[C@H](NC(=O)OC3CCCCC3)C(=O)N2C1", "note": "[Example 143, cyclohexyl [(2R,6S,12Z,13aS,14aR,16aS)-5′-methyl-14a-{[(1-methylcyclopropyl)sulfonyl]carbamoyl}-5,16-dioxo-1,1′,2′,5,6,7,8,9,10,11,13a,14,14a,15,16,16a-hexadecahydrospiro[cyclopropa[e]pyrrolo[1,2-a][1,4]diazacyclopentadecine-2,3′-pyrano[2,3-c]quinolin]-6-yl]carbamate]", "values": [{"measurement": "IC50", "setting": "[1]; K+ salt", "value": 0.009, "unit": "nM"}, {"measurement": "EC50", "setting": "HCV genotype 1b replicon; K+ salt", "value": 1.18, "unit": "nM"}]}
{"molecule": "CC(C)COC(=O)N[C@H]1CCCCC/C=C\\[C@@H]2C[C@@]2(C(=O)NS(=O)(=O)C2(C)CC2)NC(=O)[C@@H]2C[C@]3(CCc4c(c(C5CC5)nc5ccc(F)cc45)O3)CN2C1=O", "note": "[Example 144, 2-methylpropyl [(2R,6S,12Z,13aS,14aR,16aS)-5′-cyclopropyl-9′-fluoro-14a-{[(1-methylcyclopropyl)sulfonyl]carbamoyl}-5,16-dioxo-1,1′,2′,5,6,7,8,9,10,11,13a,14,14a,15,16,16a-hexadecahydrospiro[cyclopropa[e]pyrrolo[1,2-a][1,4]diazacyclopentadecine-2,3′-pyrano[2,3-c]quinolin]-6-yl]carbamate]", "values": [{"measurement": "IC50", "setting": "[1]", "value": 0.007, "unit": "nM"}, {"measurement": "EC50", "setting": "HCV genotype 1b replicon", "value": 1.02, "unit": "nM"}]}
{"molecule": "CC1(S(=O)(=O)NC(=O)[C@@]23C[C@H]2/C=C\\CCCCC[C@H](NC(=O)OC2CCCC2)C(=O)N2C[C@@]4(CCc5c(c(C6CC6)nc6ccc(F)cc56)O4)C[C@H]2C(=O)N3)CC1", "note": "[Example 145, cyclopentyl [(2R,6S,12Z,13aS,14aR,16aS)-5′-cyclopropyl-9′-fluoro-14a-{[(1-methylcyclopropyl)sulfonyl]carbamoyl}-5,16-dioxo-1,1′,2′,5,6,7,8,9,10,11,13a,14,14a,15,16,16a-hexadecahydrospiro[cyclopropa[e]pyrrolo[1,2-a][1,4]diazacyclopentadecine-2,3′-pyrano[2,3-c]quinolin]-6-yl]carbamate]", "values": [{"measurement": "IC50", "setting": "[1]", "value": 0.006, "unit": "nM"}, {"measurement": "EC50", "setting": "HCV genotype 1b replicon", "value": 1.16, "unit": "nM"}]}
{"molecule": "Cc1nc2ccc(OC(F)(F)F)cc2c2c1O[C@]1(CC2)C[C@H]2C(=O)N[C@]3(C(=O)NS(=O)(=O)C4(C)CC4)C[C@H]3/C=C\\CCCCC[C@H](NC(=O)OCC3CCCC3)C(=O)N2C1", "note": "[Example 146, cyclopentylmethyl [(2R,6S,12Z,13aS,14aR,16aS)-5′-methyl-14a-{[(1-methylcyclopropyl)sulfonyl]carbamoyl}-5,16-dioxo-9′-(trifluoromethoxy)-1,1′,2′,5,6,7,8,9,10,11,13a,14,14a,15,16,16a-hexadecahydrospiro[cyclopropa[e]pyrrolo[1,2-a][1,4]diazacyclopentadecine-2,3′-pyrano[2,3-c]quinolin]-6-yl]carbamate]", "values": [{"measurement": "IC50", "setting": "[1]", "value": 0.03, "unit": "nM"}, {"measurement": "EC50", "setting": "HCV genotype 1b replicon", "value": 11.8, "unit": "nM"}]}
{"molecule": "Cc1nc2c(F)cccc2c2c1O[C@]1(CC2)C[C@H]2C(=O)N[C@]3(C(=O)NS(=O)(=O)C4(C)CC4)C[C@H]3/C=C\\CCCCC[C@H](NC(=O)OCC(C)C)C(=O)N2C1", "note": "[Example 147, 2-methylpropyl [(2R,6S,12Z,13aS,14aR,16aS)-7′-fluoro-5′-methyl-14a-{[(1-methylcyclopropyl)sulfonyl]carbamoyl}-5,16-dioxo-1,1′,2′,5,6,7,8,9,10,11,13a,14,14a,15,16,16a-hexadecahydrospiro[cyclopropa[e]pyrrolo[1,2-a][1,4]diazacyclopentadecine-2,3′-pyrano[2,3-c]quinolin]-6-yl]carbamate]", "values": [{"measurement": "IC50", "setting": "[1]", "value": 0.01, "unit": "nM"}, {"measurement": "EC50", "setting": "HCV genotype 1b replicon", "value": 1.05, "unit": "nM"}]}
{"molecule": "CC1(S(=O)(=O)NC(=O)[C@@]23C[C@H]2/C=C\\CCCCC[C@H](NC(=O)OC2CCCC2)C(=O)N2C[C@@]4(CCc5c(c(C(F)(F)F)nc6ccccc56)O4)C[C@H]2C(=O)N3)CC1", "note": "[Example 148, cyclopentyl [(2R,6S,12Z,13aS,14aR,16aS)-14a-{[(1-methylcyclopropyl)sulfonyl]carbamoyl}-5,16-dioxo-5′-(trifluoromethyl)-1,1′,2′,5,6,7,8,9,10,11,13a,14,14a,15,16,16a-hexadecahydrospiro[cyclopropa[e]pyrrolo[1,2-a][1,4]diazacyclopentadecine-2,3′-pyrano[2,3-c]quinolin]-6-yl]carbamate]", "values": [{"measurement": "IC50", "setting": "[1]; K+ salt", "value": 0.011, "unit": "nM"}, {"measurement": "EC50", "setting": "HCV genotype 1b replicon; K+ salt", "value": 0.195, "unit": "nM"}]}
{"molecule": "Cc1nc2ccccc2c2c1O[C@@]1(C[C@H]3C(=O)N[C@]4(C(=O)NS(=O)(=O)C5(C)CC5)C[C@H]4/C=C\\CCCCC[C@H](NC(=O)OC4CCCC4)C(=O)N3C1)CC2(F)F", "note": "[Example 149, cyclopentyl [(2S,6S,12Z,13aS,14aR,16aS)-1′,1′-difluoro-5′-methyl-14a-{[(1-methylcyclopropyl)sulfonyl]carbamoyl}-5,16-dioxo-1,1′,2′,5,6,7,8,9,10,11,13a,14,14a,15,16,16a-hexadecahydrospiro[cyclopropa[e]pyrrolo[1,2-a][1,4]diazacyclopentadecine-2,3′-pyrano[2,3-c]quinolin]-6-yl]carbamate]", "values": [{"measurement": "IC50", "setting": "[1]", "value": 0.022, "unit": "nM"}, {"measurement": "EC50", "setting": "HCV genotype 1b replicon", "value": 0.195, "unit": "nM"}]}
{"molecule": "CC1(S(=O)(=O)NC(=O)[C@@]23C[C@H]2/C=C\\CCCCC[C@H](NC(=O)OC2CCCC2)C(=O)N2C[C@@]4(CCc5c(c(C6CC6)nc6c(F)cccc56)O4)C[C@H]2C(=O)N3)CC1", "note": "[Example 150, cyclopentyl [(2R,6S,12Z,13aS,14aR,16aS)-5′-cyclopropyl-7′-fluoro-14a-{[(1-methylcyclopropyl)sulfonyl]carbamoyl}-5,16-dioxo-1,1′,2′,5,6,7,8,9,10,11,13a,14,14a,15,16,16a-hexadecahydrospiro[cyclopropa[e]pyrrolo[1,2-a][1,4]diazacyclopentadecine-2,3′-pyrano[2,3-c]quinolin]-6-yl]carbamate]", "values": [{"measurement": "IC50", "setting": "[1]", "value": 0.013, "unit": "nM"}, {"measurement": "EC50", "setting": "HCV genotype 1b replicon", "value": 0.195, "unit": "nM"}]}
